The values below come from patent publication US7018803B2, “Inhibitors of collagen assembly” (Drexel University College of Medicine, priority 1997, dated 2006).

No end group written: not given here.

In assay [1] the target is T1, type I collagen (pCcollagen I) (Homo sapiens, UniProt P02452).
T1 construct: made in house; host or cells: cultured human skin fibroblasts (endogenous procollagen purified from the medium, 14C-labelled)
The format is biochemical. As to conditions: for inhibition of fibril assembly (in words): peptide 2.5 mM. The procedure: Assembly of collagen I into fibrils de novo was assayed under conditions employed previously (Miyahara et al., 1982, J. Biol. Chem. 257:8442–8448; Kadler et al., 1987, J. Biol. Chem. 262:15696–15701; Kadler et al., 1990, Ann. N.Y. Acad. Sci. 580:214–224; Kadler et al., 1990, Biochem. J. 268:339–343; Fertala et al., 1996, J. Biol. Chem. 271:14864–14869). In brief, ^14C-labeled type I procollagen was recovered from the medium of cultured human skin fibroblasts and was purified with two chromatographic steps to homogeneity. The type I procollagen was processed to pccollagen I by cleavage with procollagen N-proteinase purified from organ cultures of chick embryo tendons. “pCcollagen” is a partially processed procollagen which is missing the […]. The pCcollagen was then isolated on a gel filtration column. Fibril assembly was assayed in a […] reaction volume in a […] plastic centrifuge tube sealed with a plunger and containing a physiological bicarbonate buffer, […] pCcollagen I, and 15 units/ml procollagen C-proteinase purified from chick embryo tendons. Potentially inhibitory peptides were added to the reaction mixture to final concentrations of 0.5 to 2.5 mM in […] of buffer. After incubation for 0.5 to 24 hours at 37° C., the sample was centrifuged 13,000×g for 10 min. The pellet and supemate fractions were separated by electrophoresis on a 7.5% polyacrylamide gel in SDS and the gel assayed either with a phosphor storage imager (Molecular Dynamics) or by staining with colloidal Coomassie blue (Brilliant Blue, Sigma) and analysis with a densitometer (Personal Densitometer, Molecular Dynamics). Alternatively, the reaction was carried out in a sealed chamber on a microscopic slide and followed by Dark field light microscopy (Zeiss model 009).
F6 contained sequences that spanned the vertebrate collagenase cleavage site of -Gly-le- in the D4 period of the α1(I) chain. […] The peptides were added in concentrations of 2.5 mM to the system for assaying fibril formation by the cleavage of pCcollagen with C-proteinase (Miyahara et al., 1982, J. Biol. Chem. 257:8442–8448; Kadler et al., 1987, J. Biol. Chem. 262:15696–15701; Kadler et al., 1990, Ann. N.Y. Acad. Sci. 580:214–224; Kadler et al., 1990, Biochem. J. 268:339–343; Fertala et al., 1996, J. Biol. Chem. 271:14864–14869).

Assay [2] has as its target T2, type I collagen (monomeric collagen, Vitrogen 100) (Bos taurus, UniProt P02453).
T2 construct: purchased Collagen Biomaterials Vitrogen 100
As to the kind of experiment: Competition binding assay on microtiter plates with biotinylated telopeptides. The procedure: A collagen assembly inhibitory peptide is “biologically active” if it is capable of inhibiting collagen self-assembly in any one of the assays described herein. For example, in a high throughput assay described herein in the description of the data shown in FIGS. 8 and 9, a series of wells in a microtiter plate are coated with monomeric collagen. An amount of HCl is added to each well and the plates are dried. The plates are rinsed in buffer and bovine serum albumin (BSA) is added to block non-specific binding sites on the collagen. Samples containing labeled peptide (for example, biotinylated peptide) which is known to inhibit collagen self-assembly and unlabeled test peptide at various concentrations are premixed and are added to the wells. […] The wells are incubated for a period of time, the plates are washed and streptavidin conjugated to alkaline phosphatase is added. Incubation is continued for a further period of time following which a developing reagent is added to the wells. The amount of binding of the labeled peptide to the collagen is assessed and the degree of inhibition of binding by the test peptide is also assessed. Any test peptide which inhibits binding of the labeled peptide is isolated and is tested further for the ability to inhibit collagen self-assembly in the assays described herein in the description of FIGS. 1, 2 and 3.
To define the telopeptide binding site with a competitive assay, 96-well titiation plates (Immulon 3, Dynatech Laboratories, Inc.) were used. Seventy microliters of the solution containing […] of monomeric collagen (Vitrogen 100, Collagen Biomaterials) in 0.01 N HCl was added to each well, and the plates were dried at room temperature. The plates were rinsed with sterile phosphate buffered saline and non-specific binding sites were blocked with 1% bovine serum albumin. […] As a negative control, peptide α2-218/233 was used at concentrations from […]. […] After 2 hours of incubation, the reaction was measured with microtiter plate reader (Dynatech Laboratories) using a 405 nanometer filter. […]

In the next assay the target is type I collagen (Homo sapiens, UniProt P02452). Put plainly: Phage display peptide library panning, ligand type I collagen in all three cycles. The conditions noted are these: ligand Type I Collagen x3. It is filed as binding. The source says:
(§1) A comrnmercially-available phage-display peptide library was used to identify peptides that bind to the telopeptide binding region of type I collagen (i.e. amino acid residues 776–797). The library comprised phage particles having about 1.9×10^9 distinct linear peptide sequences.
(§2) For the experiments described in this Example, either type I collagen or a 22-mer synthetic peptide having the amino acid sequence of residues 776–797 of type I collagen was bound to the walls of individual wells of microtiter plates. Aliquots of the phage-display peptide library were added to and incubated with the wells. Thereafter, the microtiter wells were rinsed to remove non-specifically-binding library particles, and specifically-binding library particles were eluted using a solution comprising at least one of: • the 22-mer synthetic peptide having the amino acid sequence of residues 776–797 of type I collagen; • type I collagen; and • glycine HCl buffer having a pH of 2.2.
(§3) Eluted specifically-binding library particles were added to and incubated with microtiter plates having either type I collagen or the 22-mer synthetic peptide bound to the wells thereof, and washing and elution steps were repeated. A total of three cycles of incubation-washing-elution were performed. Following these three cycles, specifically-binding phage particles were isolated, and the amino acid sequence of the peptide encoded by each of these particles was determined by amplifying and sequencing the nucleic acid contained within the particle.
Amino acid sequences of the random peptide region carried by discrete specifically-binding phage particles are indicated in Table II, together with the identity of the ligand bound to the microtiter wells in each of the three incubation-washing-elution cycles. […]

Assay [3] deals with T3, α1-776/796 (telopeptide binding region of type I collagen) (Homo sapiens, UniProt P02452).
T3 construct: host or cells: synthetic peptide
As to the kind of experiment: Phage display peptide library panning, ligand α1-776/796 peptide in all three cycles. As to conditions: ligand α1-776/796 x3.
Source text: as §1, §2, §3
Amino acid sequences of the random peptide region carried by discrete specifically-binding phage particles are indicated in Table II, together with the identity of the ligand bound to the microtiter wells in each of the three incubation-washing-elution cycles. These isolated peptides, or peptides having no more than about fifty, preferably no more than twenty, even more preferably no more than ten, and still more preferably no more than five amino acid residues at one or both ends thereof, may be used to inhibit collagen self-assembly by contacting a collagen molecule such as a collagen triple helix, with one of these peptides.

T2 sequence (P02453 178-1191 limits assumed): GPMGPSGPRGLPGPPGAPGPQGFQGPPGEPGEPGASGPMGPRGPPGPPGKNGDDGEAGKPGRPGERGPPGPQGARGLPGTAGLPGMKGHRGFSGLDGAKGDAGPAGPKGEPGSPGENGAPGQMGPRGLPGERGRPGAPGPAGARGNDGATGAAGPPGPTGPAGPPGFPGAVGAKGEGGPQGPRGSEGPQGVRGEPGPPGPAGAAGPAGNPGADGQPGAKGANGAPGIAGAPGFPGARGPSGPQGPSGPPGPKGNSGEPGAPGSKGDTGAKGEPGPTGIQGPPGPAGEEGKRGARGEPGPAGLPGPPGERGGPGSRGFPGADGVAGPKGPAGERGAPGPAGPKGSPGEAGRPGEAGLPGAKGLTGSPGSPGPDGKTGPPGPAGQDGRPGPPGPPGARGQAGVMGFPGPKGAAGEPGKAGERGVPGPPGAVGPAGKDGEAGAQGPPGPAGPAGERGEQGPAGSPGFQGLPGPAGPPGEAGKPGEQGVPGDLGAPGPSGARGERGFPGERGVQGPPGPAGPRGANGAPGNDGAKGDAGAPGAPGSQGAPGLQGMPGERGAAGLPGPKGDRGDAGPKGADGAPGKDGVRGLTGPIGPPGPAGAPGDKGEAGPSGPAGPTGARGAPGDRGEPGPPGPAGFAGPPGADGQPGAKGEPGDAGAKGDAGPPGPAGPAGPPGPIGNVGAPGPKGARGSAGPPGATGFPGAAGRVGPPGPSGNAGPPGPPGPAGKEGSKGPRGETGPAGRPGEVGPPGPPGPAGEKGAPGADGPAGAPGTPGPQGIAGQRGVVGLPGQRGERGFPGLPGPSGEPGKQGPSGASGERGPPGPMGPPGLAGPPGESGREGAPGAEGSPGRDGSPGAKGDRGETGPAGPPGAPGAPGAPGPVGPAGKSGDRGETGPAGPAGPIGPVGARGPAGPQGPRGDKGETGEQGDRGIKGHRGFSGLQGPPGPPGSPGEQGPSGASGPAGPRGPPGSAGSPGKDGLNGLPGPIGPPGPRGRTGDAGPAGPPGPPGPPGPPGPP
T1 sequence (P02452 162-1218 limits assumed): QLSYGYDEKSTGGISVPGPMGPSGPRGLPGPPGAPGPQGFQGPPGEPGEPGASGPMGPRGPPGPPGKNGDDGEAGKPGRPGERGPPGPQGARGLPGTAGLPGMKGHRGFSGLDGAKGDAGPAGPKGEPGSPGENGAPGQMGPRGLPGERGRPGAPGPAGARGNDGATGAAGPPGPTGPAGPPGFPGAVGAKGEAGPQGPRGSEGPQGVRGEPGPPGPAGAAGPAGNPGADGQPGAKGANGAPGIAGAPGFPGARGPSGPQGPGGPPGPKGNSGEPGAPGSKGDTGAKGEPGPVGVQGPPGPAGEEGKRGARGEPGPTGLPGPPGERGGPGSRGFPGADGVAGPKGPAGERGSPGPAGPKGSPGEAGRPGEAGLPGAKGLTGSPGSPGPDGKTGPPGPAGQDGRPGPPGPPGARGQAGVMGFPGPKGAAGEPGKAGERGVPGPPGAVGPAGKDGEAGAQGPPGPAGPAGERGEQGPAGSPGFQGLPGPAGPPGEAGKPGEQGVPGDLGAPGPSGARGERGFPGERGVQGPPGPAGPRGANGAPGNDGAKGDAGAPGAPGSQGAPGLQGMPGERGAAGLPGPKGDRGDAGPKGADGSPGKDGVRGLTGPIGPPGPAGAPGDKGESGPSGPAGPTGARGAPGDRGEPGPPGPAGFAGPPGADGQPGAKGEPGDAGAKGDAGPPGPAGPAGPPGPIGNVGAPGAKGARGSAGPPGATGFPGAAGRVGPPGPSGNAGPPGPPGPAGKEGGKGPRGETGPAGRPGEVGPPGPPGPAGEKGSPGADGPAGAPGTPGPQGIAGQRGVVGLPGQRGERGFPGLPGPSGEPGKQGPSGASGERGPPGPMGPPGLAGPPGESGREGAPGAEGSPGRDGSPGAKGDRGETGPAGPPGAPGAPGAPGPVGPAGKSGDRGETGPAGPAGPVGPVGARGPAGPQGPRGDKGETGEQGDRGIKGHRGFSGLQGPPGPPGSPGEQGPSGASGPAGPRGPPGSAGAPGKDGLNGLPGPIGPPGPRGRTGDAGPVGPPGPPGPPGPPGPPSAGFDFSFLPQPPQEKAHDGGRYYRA
T1 sequence (P08123 80-1119 partner limits assumed): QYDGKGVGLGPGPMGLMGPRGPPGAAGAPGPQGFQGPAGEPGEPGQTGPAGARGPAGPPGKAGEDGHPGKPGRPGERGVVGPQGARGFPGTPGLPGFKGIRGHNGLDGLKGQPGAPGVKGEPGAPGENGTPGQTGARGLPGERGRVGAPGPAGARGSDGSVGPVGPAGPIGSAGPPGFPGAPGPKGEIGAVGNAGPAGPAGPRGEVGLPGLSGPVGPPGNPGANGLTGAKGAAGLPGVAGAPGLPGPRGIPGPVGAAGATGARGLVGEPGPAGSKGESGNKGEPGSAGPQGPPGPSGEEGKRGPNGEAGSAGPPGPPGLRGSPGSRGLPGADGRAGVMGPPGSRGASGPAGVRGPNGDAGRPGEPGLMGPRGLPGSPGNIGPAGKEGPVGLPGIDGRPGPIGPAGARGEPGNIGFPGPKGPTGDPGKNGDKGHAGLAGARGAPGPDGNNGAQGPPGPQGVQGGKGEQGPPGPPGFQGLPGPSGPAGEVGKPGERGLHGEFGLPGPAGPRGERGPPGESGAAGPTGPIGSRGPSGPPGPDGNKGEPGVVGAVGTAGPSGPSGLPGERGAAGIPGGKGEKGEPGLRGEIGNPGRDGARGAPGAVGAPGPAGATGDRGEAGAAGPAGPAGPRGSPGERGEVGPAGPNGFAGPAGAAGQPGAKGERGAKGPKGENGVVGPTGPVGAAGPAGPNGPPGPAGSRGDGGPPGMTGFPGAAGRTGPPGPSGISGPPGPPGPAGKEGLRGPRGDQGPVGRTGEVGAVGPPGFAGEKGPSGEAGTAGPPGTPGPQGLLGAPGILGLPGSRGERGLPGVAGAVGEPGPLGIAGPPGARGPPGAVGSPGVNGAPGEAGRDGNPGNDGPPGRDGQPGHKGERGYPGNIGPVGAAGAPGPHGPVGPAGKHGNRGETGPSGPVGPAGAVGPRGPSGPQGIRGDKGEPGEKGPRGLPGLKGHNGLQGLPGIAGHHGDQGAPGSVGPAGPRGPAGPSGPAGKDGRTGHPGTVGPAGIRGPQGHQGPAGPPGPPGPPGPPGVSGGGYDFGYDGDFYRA
Sequence of type I collagen (P02452 162-1218 limits assumed): as the sequence (P02452 162-1218 limits assumed) above
Sequence of type I collagen (P08123 80-1119 partner limits assumed): as the sequence (P08123 80-1119 partner limits assumed) above

As to ADGPAGAPGTPGPQGIAGQRGVVGL [Peptide F6], the “inhibition of fibril assembly (in words)” value in assay [1] is recorded as “little if any inhibition”.
AKGAAGLPGVAGAPGL [Peptide F1]: in assay [2] (negative control, 10 to 500 mM), the “competition for the binding site with biotinylated telopeptides” value is “no competition”. The “inhibition of fibril assembly (in words)” value in assay [1] was “little if any inhibition”.
Consider DFRYRA [Peptide F10, DFRYRA], for which, in assay [1], the “inhibition of fibril assembly (in words)” value is “Smaller effects”.
The same measure, in the same setting: under GGGSDSGSD [F7/B] stands “abolished inhibitory effects”.
On to GGGYDFGYD [Peptide F7], for which the “inhibition of fibril assembly (in words)” value in assay [1] was “equally effective as the intact F3”.
For the substance GGGYDFGYDGDFYRA [Peptide F3], the “effect on fibril formation when added during the lag period” value in assay [1] (2.5 mM added during the lag phase) was “inhibited fibril formation”. The “effect on fibril assembly when added during the mid-propagation phase” value in assay [1] (2.5 mM added during the mid-propagation phase) was “little of any effect”. The “appearance of fibrils by Dark field light microscopy” value in assay [1] (2.5 mM, sealed chamber, 37° C., 24 hours) is listed as “No fibrils appeared”. In assay [1] (added at or before the first one-third of the lag phase), the “effect on fibril assembly if added at or before the first one-third of the lag phase” value is given as “completely prevented fibril assembly”. Further, in assay [1] (added thereafter), the “effect on fibril assembly if added after the first one-third of the lag phase” value was “much less effect”. In addition, in assay [1], the “inhibition of fibril assembly (in words)” value is on record as “almost completely inhibited”.
As to GGGYSFGYS [F7/A], the “inhibition of fibril assembly (in words)” value in assay [1] is recorded as “no effect on inhibition of fibril assembly”.
Still for that read-out and setting: under GYDFGYDGDF [Peptide F9] stands “Smaller effects”; under GYDGDFYRA [Peptide F8], “equally effective as the intact F3”.
Take “LIQPPRYSTTVS (Phage Display Library Peptide)”: the “# of Isolated Particles Having this Sequence” value with type I collagen (eluent pH 2.2 buffer) stood at 10.
Turning to “LLPHSVSIPPDA (Phage Display Library Peptide)”, the “# of Isolated Particles Having this Sequence” value in the assay with type I collagen (eluent Type I Collagen) was found to be 10.
Consider “QLLEPVNLSTGP (Phage Display Library Peptide)”, for which, in assay [3] (eluent α1-776/796), the “# of Isolated Particles Having this Sequence” value is recorded as 7.
As to QLSYGYDEKSTGGISVP [Peptide F4], the “inhibition of fibril assembly (in words)” value in assay [1] was “almost completely inhibited”.
Regarding “SHALPLTWSTAA (Phage Display Library Peptide)”, the “# of Isolated Particles Having this Sequence” value in assay [3] (eluent α1-776/796) turned out to be 1; with type I collagen (eluent α1-776/796), 10.
Turning to “TFWHLTPPRGYY (Phage Display Library Peptide)”, the “# of Isolated Particles Having this Sequence” value in assay [3] (eluent pH 2.2 buffer) is given as 3→.
Turning to “VHWWIPVSTGTA (Phage Display Library Peptide)”, the “# of Isolated Particles Having this Sequence” value in assay [3] (eluent pH 2.2 buffer) is listed as 6→.
“YGAGFDDGDYGYRYG [SC/F3, peptide having the same amino acid residues as F3, but in a scrambled order, reference compound]”: the “inhibition of fibril assembly (in words)” value in assay [1] is on record as “no effect”.
Take “YGSPHPSRPPGA (Phage Display Library Peptide)”: the “# of Isolated Particles Having this Sequence” value is reported as 10 in assay [3] (eluent Type I Collagen) and 1→ in assay [3] (eluent α1-776/796).
As for “α1-776/797: peptide with the sequence of the amino acids in positions 776 to 797 of the α1(I) chain (IAGQRGVVGLPGQRGERGFPGL)”, the “competition with binding of biotinylated C-telopeptide of the α1(I) chain (peptide F2) to type I collagen” value in assay [2] (50 mM biotinylated F2, 10 to 500 mM competitor, 25° C., 12 h) is “effectively competed”. Moreover, in assay [2] (50 mM biotinylated F3, 10 to 500 mM competitor, 25° C., 12 h), the “competition with binding of biotinylated C-telopeptide of the α2(I) chain (peptide F3) to type I collagen” value was “effectively competed”.
